Source: patent US20260078135A1, “POLYCYCLIC QUINAZOLINES FOR INHIBITION OF ERBB2” (Enliven Inc., priority 2022, published 2026)

Columns and labels:
[1] = target: T1, phosphorylated ERBB2 (pERBB2) (Homo sapiens, UniProt P04626); test: Detection of phosphorylated ERBB2 (pERBB2) by ELISA in BT-474 cells; assay type: cell-based; conditions: four hour incubation
T1 construct: endogenous in cells; host or cells: BT-474
Method in brief: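 BT-474 cells were treated with compounds (fourfold dilutions, 10 μM to 0.01 nM final) for 4 h at 37 °C, then lysed. pERBB2 in lysates was quantified by ELISA with an HRP anti-phosphotyrosine detection antibody and TMB read at 450 nm; % relative activity was normalized to no-cell and 0.1% DMSO controls.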

Ba/F3 ERBB2 YVMA = Ba/F3 ERBB2 YVMA (Homo sapiens, UniProt P04626, DUP772-775, cells depend on it); test: Cell viability assay (CellTiter Glo), Ba/F3 cells engineered to express ERBB2 YVMA; assay type: cell-based, mouse; conditions: Ba/F3 cells expressing human ERBB2 YVMA mutant, 72 hours, read-out: Ba/F3 ERBB2 YVMA, IC50
Chain of Ba/F3 ERBB2 YVMA (P04626 with tags, fused parts or gaps DUP772-775): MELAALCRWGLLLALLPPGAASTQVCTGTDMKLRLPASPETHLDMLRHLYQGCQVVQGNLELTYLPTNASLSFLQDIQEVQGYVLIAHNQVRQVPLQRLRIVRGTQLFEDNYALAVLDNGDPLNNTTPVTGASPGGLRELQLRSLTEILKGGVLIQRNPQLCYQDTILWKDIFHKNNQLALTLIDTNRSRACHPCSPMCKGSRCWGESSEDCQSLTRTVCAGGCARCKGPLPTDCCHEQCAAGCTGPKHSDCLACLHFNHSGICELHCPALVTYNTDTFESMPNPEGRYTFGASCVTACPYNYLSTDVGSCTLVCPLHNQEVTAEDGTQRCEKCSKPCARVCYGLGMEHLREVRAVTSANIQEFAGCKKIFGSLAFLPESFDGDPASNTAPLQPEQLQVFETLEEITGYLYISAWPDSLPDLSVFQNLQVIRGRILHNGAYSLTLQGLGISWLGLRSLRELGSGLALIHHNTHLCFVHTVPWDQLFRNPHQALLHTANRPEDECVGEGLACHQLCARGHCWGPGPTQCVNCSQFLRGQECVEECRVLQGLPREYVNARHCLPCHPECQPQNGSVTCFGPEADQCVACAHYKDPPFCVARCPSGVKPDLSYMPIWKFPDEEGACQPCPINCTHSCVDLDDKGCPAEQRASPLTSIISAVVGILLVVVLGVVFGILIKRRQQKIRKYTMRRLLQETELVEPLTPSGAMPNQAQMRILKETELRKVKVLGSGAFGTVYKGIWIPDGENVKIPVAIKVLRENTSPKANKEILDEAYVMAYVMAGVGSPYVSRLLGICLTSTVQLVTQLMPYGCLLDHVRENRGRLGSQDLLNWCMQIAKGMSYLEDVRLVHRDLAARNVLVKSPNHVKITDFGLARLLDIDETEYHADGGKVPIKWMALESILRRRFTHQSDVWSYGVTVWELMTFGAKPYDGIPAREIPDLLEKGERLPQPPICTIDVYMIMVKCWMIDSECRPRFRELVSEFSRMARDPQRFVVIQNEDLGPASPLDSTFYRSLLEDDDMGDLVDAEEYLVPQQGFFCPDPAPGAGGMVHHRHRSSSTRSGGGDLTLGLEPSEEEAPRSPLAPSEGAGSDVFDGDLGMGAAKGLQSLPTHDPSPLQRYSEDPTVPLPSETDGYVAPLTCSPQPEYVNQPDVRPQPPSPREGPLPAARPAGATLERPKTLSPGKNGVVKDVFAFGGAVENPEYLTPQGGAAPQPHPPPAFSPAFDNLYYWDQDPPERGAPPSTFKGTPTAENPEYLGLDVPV
Method in brief: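 Ba/F3 cells (IL-3-independent via stable retroviral human ERBB2 YVMA) seeded 3000/well and given compound from about 10 μM to 0.51 nM in three-fold steps, DMSO ≤0.1%, 72 h at 37° C. Viability by CellTiter Glo luminescence, normalized to DMSO and media-only controls. Sigmoidal nonlinear fit.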

[2] = target: T2, phosphorylated EGFR (pEGFR) (Homo sapiens, UniProt P00533); test: Detection of phosphorylated EGFR (pEGFR) by AlphaLISA in EGF-stimulated A431 cells; assay type: cell-based; conditions: A431 cells (10% FBS), 4 hours incubation, EGF 30 ng/mL for 10 minutes
T2 construct: performed to measure phosphorylated EGFR levels using A431 cells (10% FBS); endogenous in cells; host or cells: A431
T2 sequence (P00533 25-1210): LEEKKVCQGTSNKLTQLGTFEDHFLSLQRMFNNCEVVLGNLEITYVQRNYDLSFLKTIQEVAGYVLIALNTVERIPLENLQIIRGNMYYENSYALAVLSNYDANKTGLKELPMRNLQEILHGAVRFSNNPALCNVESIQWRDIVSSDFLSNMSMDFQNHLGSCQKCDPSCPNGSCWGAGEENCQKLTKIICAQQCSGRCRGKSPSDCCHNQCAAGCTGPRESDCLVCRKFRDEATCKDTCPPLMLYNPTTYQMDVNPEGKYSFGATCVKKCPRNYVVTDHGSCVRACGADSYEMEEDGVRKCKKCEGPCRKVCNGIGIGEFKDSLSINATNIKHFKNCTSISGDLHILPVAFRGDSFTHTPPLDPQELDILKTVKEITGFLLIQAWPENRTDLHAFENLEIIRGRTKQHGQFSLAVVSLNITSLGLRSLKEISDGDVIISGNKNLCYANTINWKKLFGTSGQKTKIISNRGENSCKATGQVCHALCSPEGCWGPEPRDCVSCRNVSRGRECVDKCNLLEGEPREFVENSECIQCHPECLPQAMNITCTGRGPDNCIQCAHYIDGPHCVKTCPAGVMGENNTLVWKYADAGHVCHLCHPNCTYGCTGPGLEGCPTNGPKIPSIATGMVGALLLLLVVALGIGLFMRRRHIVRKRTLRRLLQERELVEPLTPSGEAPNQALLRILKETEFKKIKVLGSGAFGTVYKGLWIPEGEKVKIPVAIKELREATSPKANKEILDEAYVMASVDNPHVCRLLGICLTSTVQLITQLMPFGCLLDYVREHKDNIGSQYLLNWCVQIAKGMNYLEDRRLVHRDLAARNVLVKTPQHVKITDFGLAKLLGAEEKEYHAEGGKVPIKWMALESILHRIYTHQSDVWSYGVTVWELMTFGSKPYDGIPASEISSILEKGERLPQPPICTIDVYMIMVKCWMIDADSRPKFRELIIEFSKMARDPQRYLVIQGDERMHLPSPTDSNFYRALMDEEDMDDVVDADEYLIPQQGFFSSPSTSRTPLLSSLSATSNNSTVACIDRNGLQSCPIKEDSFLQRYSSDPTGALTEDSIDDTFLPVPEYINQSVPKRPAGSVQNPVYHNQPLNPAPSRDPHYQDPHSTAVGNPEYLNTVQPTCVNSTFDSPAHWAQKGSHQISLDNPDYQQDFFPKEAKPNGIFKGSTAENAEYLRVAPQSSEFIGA
Method in brief: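 pEGFR was quantified by AlphaLISA in lysates of A431 cells (10% FBS) given a 10 min pulse of EGF at 30 ng/mL after 4 h compound exposure at 37 °C. IC50 came from a four-parameter fit of % inhibition between DMSO and staurosporine controls.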

T1 sequence (P04626 23-1255): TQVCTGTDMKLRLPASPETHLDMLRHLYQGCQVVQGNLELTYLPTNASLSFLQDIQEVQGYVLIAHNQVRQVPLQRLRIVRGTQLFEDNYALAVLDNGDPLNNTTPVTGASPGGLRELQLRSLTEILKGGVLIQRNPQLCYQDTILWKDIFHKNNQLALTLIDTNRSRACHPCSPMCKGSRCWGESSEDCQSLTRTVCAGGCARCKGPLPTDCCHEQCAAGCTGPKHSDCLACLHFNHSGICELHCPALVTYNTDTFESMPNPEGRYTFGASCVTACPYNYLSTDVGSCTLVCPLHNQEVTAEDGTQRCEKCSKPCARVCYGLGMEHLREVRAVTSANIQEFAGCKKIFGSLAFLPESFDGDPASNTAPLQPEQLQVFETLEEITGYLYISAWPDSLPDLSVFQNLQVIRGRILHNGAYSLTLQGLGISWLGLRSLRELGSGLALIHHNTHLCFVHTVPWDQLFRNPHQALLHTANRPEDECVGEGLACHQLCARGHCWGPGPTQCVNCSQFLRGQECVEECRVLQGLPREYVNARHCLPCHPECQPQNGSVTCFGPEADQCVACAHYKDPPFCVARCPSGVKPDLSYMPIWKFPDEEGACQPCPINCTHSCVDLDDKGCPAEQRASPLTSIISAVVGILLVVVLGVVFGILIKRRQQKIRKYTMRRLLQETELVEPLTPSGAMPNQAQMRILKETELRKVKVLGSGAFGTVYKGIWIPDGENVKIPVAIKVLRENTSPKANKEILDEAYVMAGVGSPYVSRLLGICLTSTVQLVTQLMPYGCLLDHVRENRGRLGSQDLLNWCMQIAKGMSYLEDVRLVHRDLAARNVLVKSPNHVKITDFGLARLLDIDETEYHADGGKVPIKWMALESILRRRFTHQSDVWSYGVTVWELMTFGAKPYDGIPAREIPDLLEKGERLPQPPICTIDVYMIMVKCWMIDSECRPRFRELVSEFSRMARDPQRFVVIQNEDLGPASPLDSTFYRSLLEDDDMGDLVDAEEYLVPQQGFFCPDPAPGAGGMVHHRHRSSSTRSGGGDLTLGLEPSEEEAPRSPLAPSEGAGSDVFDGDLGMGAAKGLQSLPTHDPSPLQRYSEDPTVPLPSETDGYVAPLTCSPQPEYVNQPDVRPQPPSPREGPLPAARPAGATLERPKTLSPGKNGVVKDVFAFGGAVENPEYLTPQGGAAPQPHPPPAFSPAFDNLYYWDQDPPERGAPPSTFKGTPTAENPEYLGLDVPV

SMILES	IC50 [1]	IC50 [2]	GI50 (Ba/F3 ERBB2 YVMA)
Cc1cc(Nc2ncnc3ccc4c(c23)OC[C@H]2CN4CCN2C(=O)/C=C/[C@H](C)N(C)C)c(F)cc1Oc1ccn2ncnc2c1 [Compound 91, (4S,E)-1-((3R)-13-((4-([1,2,4]triazolo[1,5-a]pyridin-7-yloxy)-2-fluoro-5-methylphenyl)amino)-2,3,5,6-tetrahydro-4H-3,7-methano[1,4,7]oxadiazonino[2,3-f]quinazolin-4-yl)-4-(dimethylamino)pent-2-en-1-one triformate]	147 nM	> 10000 nM	164 nM
Cc1cc(Nc2ncnc3ccc4c(c23)OC[C@@H]2CN(C(=O)/C=C/CN(C)C)CCN42)c(F)cc1Oc1ccn2ncnc2c1 [Compound 92, (S,E)-1-(4-((4-([1,2,4]triazolo[1,5-a]pyridin-7-yloxy)-2-fluoro-5-methylphenyl)amino)-6a,7,9,10-tetrahydropyrazino[1′,2′:4,5][1,4]oxazino[2,3-f]quinazolin-8(6H)-yl)-4-(dimethylamino)but-2-en-1-one]	20.8 nM	2160 nM	18 nM
CN(C)C/C=C/C(=O)N1CCN2c3ccc4ncnc(Nc5ccc(Oc6ccn7ncnc7c6)cc5F)c4c3OC[C@@H]2C1 [Compound 95, (S,E)-1-(4-((4-([1,2,4]triazolo[1,5-a]pyridin-7-yloxy)-2-fluorophenyl)amino)-6a,7,9,10-tetrahydropyrazino[1′,2′:4,5][1,4]oxazino[2,3-f]quinazolin-8(6H)-yl)-4-(dimethylamino)but-2-en-1-one]	32.3 nM	2780 nM	19.6 nM
CN(C)C/C=C/C(=O)N1CCN2c3ccc4ncnc(Nc5cc(F)c(Oc6ccn7ncnc7c6)cc5F)c4c3OC[C@@H]2C1 [Compound 98, (S,E)-1-(4-((4-([1,2,4]triazolo[1,5-a]pyridin-7-yloxy)-2,5-difluorophenyl)amino)-6a,7,9,10-tetrahydropyrazino[1′,2′:4,5][1,4]oxazino[2,3-f]quinazolin-8(6H)-yl)-4-(dimethylamino)but-2-en-1-one]	60 nM	> 10000 nM	16.6 nM
Cc1cc(Nc2ncnc3cnc4c(c23)OC[C@@H]2CN(C(=O)/C=C/CN(C)C)CCN42)ccc1Oc1ccn2ncnc2c1 [Compound 112, (S,E)-1-(4-((4-([1,2,4]triazolo[1,5-a]pyridin-7-yloxy)-3-methylphenyl)amino)-6a,7,9,10-tetrahydropyrazino[1,2-d]pyrimido[5′,4′:4,5]pyrido[3,2-b][1,4]oxazin-8(6H)-yl)-4-(dimethylamino)but-2-en-1-one]	21.8 nM	1170 nM	13.3 nM
Cc1cc(Nc2ncnc3ccc4c(c23)OC[C@@H]2CN(C(=O)/C=C/C3CN(C)C3)CCN42)ccc1Oc1ccn2ncnc2c1 [Compound 114, (S,E)-1-(4-((4-([1,2,4]triazolo[1,5-a]pyridin-7-yloxy)-3-methylphenyl)amino)-6a,7,9,10-tetrahydropyrazino[1′,2′:4,5][1,4]oxazino[2,3-f]quinazolin-8(6H)-yl)-3-(1-methylazetidin-3-yl)prop-2-en-1-one formic acid]	43.1 nM	> 10000 nM	172 nM
CN(C)C/C=C/C(=O)N1CCN2c3ncc4ncnc(Nc5cc(F)c(Oc6ccn7ncnc7c6)cc5F)c4c3OC[C@H]2C1 [Compound 115, (R,E)-1-(4-((4-([1,2,4]triazolo[1,5-a]pyridin-7-yloxy)-2,5-difluorophenyl)amino)-6a,7,9,10-tetrahydropyrazino[1,2-d]pyrimido[5′,4′:4,5]pyrido[3,2-b][1,4]oxazin-8(6H)-yl)-4-(dimethylamino)but-2-en-1-one]	30.2 nM	4770 nM	7.22 nM
CN(C)C/C=C/C(=O)N1CCN2c3ccc4ncnc(Nc5ccc(Oc6ccn7ncnc7c6)c(F)c5)c4c3OC[C@H]2C1 [Compound 118, (R,E)-1-(4-((4-([1,2,4]triazolo[1,5-a]pyridin-7-yloxy)-3-fluorophenyl)amino)-6a,7,9,10-tetrahydropyrazino[1′,2′:4,5][1,4]oxazino[2,3-f]quinazolin-8(6H)-yl)-4-(dimethylamino)but-2-en-1-one]	25 nM	3120 nM	35.7 nM
CN(C)C/C=C/C(=O)N1CCN2c3ccc4ncnc(Nc5ccc(Oc6ccn7ncnc7c6)cc5F)c4c3OC[C@H]2C1 [Compound 119, (R,E)-1-(4-((4-([1,2,4]triazolo[1,5-a]pyridin-7-yloxy)-2-fluorophenyl)amino)-6a,7,9,10-tetrahydropyrazino[1′,2′:4,5][1,4]oxazino[2,3-f]quinazolin-8(6H)-yl)-4-(dimethylamino)but-2-en-1-one]	29 nM	1950 nM	11.7 nM
Cc1cc(Nc2ncnc3cnc4c(c23)OC[C@H]2CN(C)CCN42)ccc1Oc1ccc2c(c1)ncn2C [Compound 120, (R)-8-methyl-N-(3-methyl-4-((1-methyl-1H-benzo[d]imidazol-5-yl)oxy)phenyl)-6,6a,7,8,9,10-hexahydropyrazino[1,2-d]pyrimido[5′,4′:4,5]pyrido[3,2-b][1,4]oxazin-4-amine]	26.4 nM	> 10000 nM	44.3 nM
Cc1cc(Nc2ncnc3cc4c(cc23)N2CCOC[C@H]2CO4)ccc1Oc1ccc2c(c1)ncn2C [Compound 121, (S)—N-(3-methyl-4-((1-methyl-1H-benzo[d]imidazol-5-yl)oxy)phenyl)-1,2,4a,5-tetrahydro-4H-[1,4]oxazino[4′,3′:4,5][1,4]oxazino[3,2-g]quinazolin-11-amine]	27.2 nM	> 10000 nM	71 nM

Now those with a lower IC50 [1], led by results:

IC50 [1]	IC50 [2]	SMILES	GI50 (Ba/F3 ERBB2 YVMA)
19.6 nM	2160 nM	CN(C)C/C=C/C(=O)N1CCN2c3ccc4ncnc(Nc5ccc(Oc6ccn7ncnc7c6)c(F)c5)c4c3OC[C@@H]2C1 [Compound 94, (S,E)-1-(4-((4-([1,2,4]triazolo[1,5-a]pyridin-7-yloxy)-3-fluorophenyl)amino)-6a,7,9,10-tetrahydropyrazino[1′,2′:4,5][1,4]oxazino[2,3-f]quinazolin-8(6H)-yl)-4-(dimethylamino)but-2-en-1-one]	19.9 nM
19.1 nM	221 nM	CN(C)C/C=C/C(=O)N1CCN2C[C@@H]1COc1c2ccc2ncnc(Nc3cc(F)c(Oc4ccn5ncnc5c4)cc3F)c12 [Compound 96, (E)-1-((3R)-13-((4-([1,2,4]triazolo[1,5-a]pyridin-7-yloxy)-2,5-difluorophenyl)amino)-2,3,5,6-tetrahydro-4H-3,7-methano[1,4,7]oxadiazonino[2,3-f]quinazolin-4-yl)-4-(dimethylamino)but-2-en-1-one]	9.12 nM
18.1 nM	308 nM	Cc1c(Oc2ccn3ncnc3c2)ccc(Nc2ncnc3ccc4c(c23)OC[C@@H]2CN(C(=O)/C=C/CN(C)C)CCN42)c1F [Compound 93, (S,E)-1-(4-((4-([1,2,4]triazolo[1,5-a]pyridin-7-yloxy)-2-fluoro-3-methylphenyl)amino)-6a,7,9,10-tetrahydropyrazino[1′,2′:4,5][1,4]oxazino[2,3-f]quinazolin-8(6H)-yl)-4-(dimethylamino)but-2-en-1-one]	7.75 nM
15.2 nM	8060 nM	CN(C)C/C=C/C(=O)N1CCN2c3ccc4ncnc(Nc5cc(F)c(Oc6ccn7ncnc7c6)cc5F)c4c3OC[C@H]2C1 [Compound 97, (R,E)-1-(4-((4-([1,2,4]triazolo[1,5-a]pyridin-7-yloxy)-2,5-difluorophenyl)amino)-6a,7,9,10-tetrahydropyrazino[1′,2′:4,5][1,4]oxazino[2,3-f]quinazolin-8(6H)-yl)-4-(dimethylamino)but-2-en-1-one]	3.6 nM
13.1 nM	1510 nM	Cc1cc(Nc2ncnc3cnc4c(c23)OC[C@H]2CN(C(=O)/C=C/CN(C)C)CCN42)c(F)cc1Oc1ccn2ncnc2c1 [Compound 117, (R,E)-1-(4-((4-([1,2,4]triazolo[1,5-a]pyridin-7-yloxy)-2-fluoro-5-methylphenyl)amino)-6a,7,9,10-tetrahydropyrazino[1,2-d]pyrimido[5′,4′:4,5]pyrido[3,2-b][1,4]oxazin-8(6H)-yl)-4-(dimethylamino)but-2-en-1-one]	6.57 nM
11.3 nM	593 nM	Cc1cc(Nc2ncnc3cnc4c(c23)OC[C@H]2CN(C(=O)/C=C/CN(C)C)CCN42)ccc1Oc1ccn2ncnc2c1 [Compound 113, (R,E)-1-(4-((4-([1,2,4]triazolo[1,5-a]pyridin-7-yloxy)-3-methylphenyl)amino)-6a,7,9,10-tetrahydropyrazino[1,2-d]pyrimido[5′,4′:4,5]pyrido[3,2-b][1,4]oxazin-8(6H)-yl)-4-(dimethylamino)but-2-en-1-one]	3.57 nM
10.9 nM	572 nM	Cc1cc(Nc2ncnc3ccc4c(c23)OC[C@H]2CN(C(=O)/C=C/CN(C)C)CCN42)c(F)cc1Oc1ccn2ncnc2c1 [Compound 116, (R,E)-1-(4-((4-([1,2,4]triazolo[1,5-a]pyridin-7-yloxy)-2-fluoro-5-methylphenyl)amino)-6a,7,9,10-tetrahydropyrazino[1′,2′:4,5][1,4]oxazino[2,3-f]quinazolin-8(6H)-yl)-4-(dimethylamino)but-2-en-1-one]	14 nM
